Experimental data published in paper PMC6804080, “Benzoxaboroles—Novel Autotaxin Inhibitors” (Molecules, 2019).
≈ marks a conversion by molar mass, not a printed value. Like-named read-outs stand apart in the source and are kept apart here.

Columns and labels:
ATX [1] = test system: ATX; design: method as in PMID 23688339; conditions: read-out: IC50 (inhibitory properties); cited from earlier work
LPA plasma levels = conditions: cited from earlier work
Autotaxin (ATX) = biological target: T1, Autotaxin (ATX) (Homo sapiens, UniProt Q13822); experiment: biochemical choline detection assay for ATX inhibition, LysoPC substrate; conditions: choline release assay using as a substrate; mean standard deviation from duplicate experiments
T1 construct: we added 10 μL of recombinant ATX (2 ng/mL) in a Tris–HCl buffer
Procedure: All 21 new benzoxaboroles derivatives prepared herein were evaluated for ATX inhibition in vitro using a biochemical choline detection assay, combining elements of assays already described in the literature.
[…] Mother plates with serial dilutions of compounds in pure DMSO were prepared from 10 mM DMSO stock solutions. Storplate-384-deep-well-V plates (Perkin Elmer) were also used for mother plate preparation. Compounds were diluted in a DMSO in a ratio of 1:3. An aliquot of 200 nL of compound solution was transferred from the mother plate to the test plate with a Mosquito nanoliter liquid handling system (TTP labtech). The assay was performed in Spectra-Plate-384 TC, transparent, (Perkin Elmer, Cat#6007658) using a 20 µL assay volume. The total final percentage of DMSO in the test media was 1%. Compounds were tested at 11 consecutive three-fold dilutions starting from 50 µM (final concentrations) in duplicate, covering range of 0.0008–50 μM to determine IC50 values. […] After dispensing of compounds directly to the dry plate, we added 10 μL of recombinant ATX (2 ng/mL) in a Tris–HCl buffer (140 mM NaCl, 1mM MgCl2, 5 mM KCl, 3 mM CaCl2, 1 mg/ml bovin serum albumin (BSA, fatty acid free) and 100 mM Tris–HCl, pH 9). […] The above-described solution with dimethyl sulfoxide but without the test compound was used as a control. LysoPC without ATX was used as a control for the autohydrolysis of LysoPC. After 1.5 h of incubation, 20 μL of stop solution and developer was added {Choline oxidase (1.2 U/mL), Peroxidase (1.2 U/mL), TOOS (2.7 mM), 4-Aminoantipyrine (2.7 mM), and EDTA (50 mM)} to the reaction mixture, and absorbance was measured after 30 min of incubation. The absorbance was measured by using Perkin-Elmer EnVision plate reader (λ = 555 nm). Data were analyzed using GraphPad Prism software. The calculation of IC50 data, curves and quality control (QC) analysis was made by using Excel tools and GraphPadPrism software. Briefly, individual concentration–effect curves were generated by plotting the logarithm of the tested concentration of tested compounds (X) vs. corresponding percentage inhibition values (Y) using a least squares (ordinary) fit. […] QC criteria parameters (Z,’ S:B, ΔmP) were checked for every plate.

[2] = Chrom logD determination by gradient HPLC (CHI); type: physicochemical; conditions: reversed-phase HPLC, Phenomenex Luna C18 column; pH 7.4, Luna C18 column
Procedure: clogP values were calculated for all compounds using the Percepta software. Chrom logD was determined experimentally using a procedure described in the supplementary data. Furthermore, the correlation between calculated clogP values and experimentally determined Chrom log D values were explored for molecules containing boron functional groups such as boronic acids and benzoxaboroles.
Chrom logD values were determined from the following equation: Chrom logD = 0.0857 × CHI − 2 [39]. Chromatographic hydrophobic index (CHI) values were determined from the gradient retention times (RT). These values approximately corresponded to the volume percentage of organic component in the mobile phase when the compound elutes. CHI values were determined at pH 7.4. Chromatograms were obtained using on Agilent 1100 Series liquid chromatography system with an HPLC diode-array detector (DAD) coupled with a Micromass Quattro micro atmosphere pressure ionization (API) mass spectrometer. The column used for analyses was Phenomenex Luna C18 (50 × 3 mm, 5 µm, 100 Å). The column was maintained at 25 °C. The flow rate was 1.0 mL/min. The mobile phase was composed of 50 mM ammonium acetate in water at pH 7.4 (solvent A) and acetonitrile (solvent B). The solvent gradient condition was initially 0.5% B, and then it increased linearly to 100% B over 3.0 min, remaining at 100% B for 0.5 min, then decreasing linearly to 0% B over 0.2 min followed by an equilibration period of 1.3 min prior to the next injection. The total experimental duration was 5 min. Injection volume was 2.0 µl. Samples temperature was maintained at 15 °C in the autosampler chamber. A group of ten standard compounds having different CHI values was used for calibration of RP-HPLC [40].

[3] = kinetic solubility, turbidimetric method; type: physicochemical; conditions: 37 °C, pH 7.4, aqueous buffer, kinetic from dmso stock, Solubility (kinetic solubility range)
Procedure: Turbidimetric solubility allows for a rapid determination of kinetic solubility by using small amounts of the test compound. Assay controls were α-naphtoflavone (low solubility) and sulfaphenazole (expected solubility >100µM). DMSO stock solutions (10 mM) of each compound were first serially diluted 1 in 3 in DMSO and then spiked into an aqueous buffer (100 mM PBS), resulting in 5 following final concentration: 100, 30, 10, 3 and 1 µM (each concentration was tested in duplicate). […] Compound samples were compared to a solvent control in an aqueous buffer (DMSO 1% final concentration), and a significant increase of sample absorbance was considered to have occurred when the absorbance reached a 3-fold standard deviation of the average DMSO absorbance. The calculation of solubility range data was made by Excel tool software. Results are expressed as an estimated solubility range.

[4] = in vitro plasma stability, rat plasma; type: in vitro ADME; conditions: after 4 h
Procedure: (§1) The in vitro plasma stability of the test compounds was studied in human and rat plasma with propranolol, benflorex, and eucatropine as control substances. All compounds at final concentrations of 5 μM (0.5% DMSO) were incubated in a phosphate buffer (50 mM, pH 7.4) for 4 h at 37 °C together with plasma. Aliquots were taken at different time points (0, 30, 120 min and 4 h), followed by reaction termination by the addition of CH3CN:CH3OH 2:1 v/v., which contained diclofenac and warfarin as internal standards (IS). Samples were then centrifuged (at 1600 rpm at 4 °C for 30 min), and the resulting supernatants were subjected to LC/MS/MS analysis. Results are expressed as % remaining.

[5] = in vitro plasma stability, human plasma; type: in vitro ADME; conditions: after 4 h
Procedure: as §1

[6] = metabolic stability in rat liver microsomes; type: in vitro ADME
Procedure: (§2) Metabolic stability was assessed in rat and human liver microsomes, with testosterone and propranolol as positive controls. All compounds, at a final concentration of 1 μM (0.03% DMSO), were incubated in a phosphate buffer (50 mM, pH 7.4) for 60 min at 37 °C, together with liver microsomes in the absence and presence of NADPH generating system (nicotinamide adenine dinucleotide phosphate (NADP, 2 mM), glucose-6-phosphate (20 mM), glucose-6-phosphate dehydrogenase (6U) and magnesium chloride (2 mM)). Aliquots were taken at different time points (0, 10, 20, 30, 45 and 60 min), followed by reaction termination by addition of CH3CN:CH3OH 2:1 v/v, containing diclofenac as internal standard (IS). Samples were then centrifuged (at 2000 rpm at 4 °C for 30 min), and resulting supernatants were subjected to LC/MS/MS analysis. The in vitro half-life was calculated in GraphPadPrism software from % remaining vs. time regression using non-linear regression fit. In vitro intrinsic clearance, expressed as mL/min/g liver, was determined from in vitro half-life and normalized for the protein concentration in the incubation mixture, assuming a 52.5 mg/g liver.

[7] = metabolic stability in human liver microsomes; type: in vitro ADME
Procedure: as §2

[8] = plasma protein binding, equilibrium dialysis, rat plasma; type: in vitro ADME; conditions: pH 7.4, rat plasma
Procedure: (§3) Plasma protein binding was measured using the equilibrium dialysis technique. Positive controls included in this assay were: Acebutolol (low binding) and nicardipine (very high binding). The assay was performed in a 96-well Teflon dialysis unit, where each well consisted of two chambers separated by a dialysis membrane. Plasma (human and rat, commercially obtained from Seralab) spiked with each compound (final concentration: 5 µM, 0.5% DMSO) were added to one chamber, and a blank buffer solution (60 mM Na2HPO4/14 mM KH2PO4/70 mM NaCl; pH 7.4) was added to the other side of the well. Each compound was analyzed in duplicate, for 4 h at 37 °C. After 4 h, both the plasma (free and bound fraction) and buffer (only free fraction) side of the well were sampled, matrix matched, then precipitated with a STOP solution (CH3CN:CH3OH 2:1 v/v, containing diclofenac as internal standard), and centrifuged at 2000 rpm for 30 min (+4 °C). The resulting supernatants were analyzed by LC-MS/MS. The fraction bound was calculated as the concentration difference (analyte vs. internal standard peak area ratio) in the plasma and buffer sides divided by the total concentration in the plasma side. Sampling was also performed from spiked plasma at t = 0 min in order to determine recovery, i.e., % of compound detected at t = 4 h in both the plasma and buffer chambers divided by the compound detected at t = 0 min.

[9] = plasma protein binding, equilibrium dialysis, human plasma; type: in vitro ADME; conditions: pH 7.4, read-out: PPB: fraction bound, human (converted)
Procedure: as §3

ATX [10] = conditions: read-out: reported activity in in vitro LPC choline release assay; cited from earlier work
[11] = test system: A2058 human melanoma cells; conditions: dose-dependent manner; cited from earlier work
[12] = cited from earlier work
[13] = design: method as in PMID 23688339; conditions: cited from earlier work
glioblastoma cell lines = test system: glioblastoma cell lines; design: method as in PMID 30462853; conditions: cited from earlier work
glioma tumor = test system: glioma tumor; design: method as in PMID 30462853; conditions: in vivo; cited from earlier work
[14] = read-out: PPB: fraction bound, rat (converted)
[15] = mice, intravenous administration 1 nmol/g

IC50 (Autotaxin (ATX)) [nM]	chromatographic logD [2]	solubility kinetic at 1 h [3] [µM]	PS (plasma stability), rat [4] [%remaining]	PS (plasma stability), human [5] [%remaining]	LMS: predicted in vivo hepatic clearance, rat [6] [%LBF]	LMS: predicted in vivo hepatic clearance, human [7] [%LBF]	fraction unbound at 4 h, 5 µM [8, 14]	fraction unbound at 4 h, 5 µM [9]	SMILES	LPA in the in vivo study (LPA plasma levels)	half-life in vivo [12]	further results
									O=C1N=C(N2CCN(Cc3cccc(B(O)O)c3)CC2)SC1=Cc1ccc(Cl)c(Cl)c1 [Compound 3BoA]			IC50 (ATX [1]): 13 nM; LPA plasma levels (LPA plasma levels; mice, 4 mg/kg i.v. injection): significantly decreases LPA plasma levels (almost to zero); plasma LPA levels (LPA plasma levels; mice, 4 mg/kg intravenous administration): decreases rapidly plasma LPA levels
2700 ± 2110	4.13	> 100	59.5	79.2	80	85	0.039	0.022	Cc1cc(C)cc(COC(=O)N2CCN(C3CCN(C(=O)c4ccc5c(c4)B(O)OC5)C3)CC2)c1 (stereo not drawn) [Compound 43, (3,5-dimethylphenyl)methyl 4-[1-(1-hydroxy-3H-2,1-benzoxaborole-6-carbonyl)pyrrolidin-3-yl]piperazine-1-carboxylate]			
1000 ± 1150	4.17	> 100	68.6	72.8	61	84	0.056	0.041	Cc1cc(C)cc(COC(=O)N2CCN(C3CN(C(=O)c4ccc5c(c4)B(O)OC5)C3)CC2)c1 [Compound 45, (3,5-dimethylphenyl)methyl 4-[1-(1-hydroxy-3H-2,1-benzoxaborole-6-carbonyl)azetidin-3-yl]piperazine-1-carboxylate]			
									O=C1S/C(=C\c2ccc(OCc3cccc(B(O)O)c3)cc2)C(=O)N1Cc1ccc(F)cc1 [HA130]	lowering LPA significantly	less than five	IC50 (ATX [10]): 28 nM; LPA levels in the plasma (LPA plasma levels; [15]): rapid decrease of LPA levels; toxicity (LPA plasma levels; [15]): no overt toxicity issues observed; ATX-mediated migration of A2058 human melanoma cells [11]: inhibited
									O=C(CCN1CCN(C(=O)OCc2cc(Cl)cc(Cl)c2)CC1)c1ccc2[nH]c(=O)oc2c1 [PF-8380]			anti-invasive effect (glioblastoma cell lines): significant anti-invasive effect; glioma tumor growth progression (glioma tumor): delaying simultaneously glioma tumor growth progression

SMILES	IC50 (Autotaxin (ATX)) [nM]	chromatographic logD [2]	solubility kinetic at 1 h [3] [µM]	PS (plasma stability), rat [4] [%remaining]	PS (plasma stability), human [5] [%remaining]	LMS: predicted in vivo hepatic clearance, rat [6] [%LBF]	LMS: predicted in vivo hepatic clearance, human [7] [%LBF]	fraction unbound at 4 h, 5 µM [8, 14]	fraction unbound at 4 h, 5 µM [9]	LPA in the in vivo study (LPA plasma levels)	half-life in vivo [12]	further results
O=C1S/C(=C\c2ccc(OCc3ccc(B(O)O)cc3)cc2)C(=O)N1Cc1ccc(F)cc1 [HA155, reference compound]				65.7	42.9	< 30	54	0.001	< 0.001	lowering LPA significantly	less than five	fraction unbound at 4 h, 5 µM ([8]; read-out: fraction unbound, rat plasma): 0.004; Solubility, value taken from literature [13]: 6.8 µM (≈ 3.15 µg/mL)
